Source: patent US8017124B2, “Use of DMBT1 for capturing sulphate and phosphate group exposing agents” (priority 2004, dated 2011)
Read-outs that look alike come from different tables or passages of the source.

How the values were obtained:
DMBT1pbs1 = biological target: T1, DMBT1pbs1 (Homo sapiens, UniProt Q9UGM3); format: binding; parameters: key: +++: no difference in aggregation compared to reference; ++: moderate inhibition of aggregation over the entire time course or maximal aggregation delayed by 1-5-min compared to reference; +: strong inhibition of aggregation over the entire time course or maximal aggregation delayed by 5-10 min compared to reference; −: complete inhibition of aggregation after 10 min
T1 construct: purchased Eurogentec, Belgium
Protocol: Streptococcus mutans (Ingbritt), Streptococcus gordonii (HG 222 and DSM20568), Escherichia coli (F7 and OM36-1), and Helicobacter pylori (ATCC 43504) were gown and processed as described earlier. Salmonella typhimurium (strain SF1399: wild type; strain SF1195: Rc chemotype; strain SF1567: Rd1 chemotype; strain SF1398: Re chemotype) were kindly provided by Dr. Ben Appelmelk from the Free University of Amsterdam, The Netherlands, and were grown and processed as previously described for E. coli. The bacteria were diluted in the buffers depicted previously to a final OD700 of 0.5 or 1.0 corresponding to about 0.5 and 1.0×10^9 cells/ml respectively.
For quantitative measurements of bacterial aggregation, we added 200 μl peptide stock solution (1 mg/ml in 10% DMSO) diluted with 300 μl TBS containing 0.1% v/v Tween 20 and 1 mM CaCl2 (TBS-TC) to 500 μl of the respective bacterial suspensions to obtain final peptide concentrations of […]. As controls, we used bacterial suspensions, to which 200 μl 10% (v/v %) DMSO in H2O and 300 μl TBS-TC were added. Bacterial aggregation was monitored by measuring the optical density at 700 nm in intervals of 1 min for 1 h in a spectrophotometer (UVICON 930, Kontron Instruments). For the semi-quantitative high-throughput competition assays, we first determined the allowed pH range for DMBT1pbs1-mediated aggregation of S. gordonii and E. coli by using TBS-TC adjusted with either HCl or NaOH. […] For monitoring competitive effects, we preincubated 20 μl of the DMBT1pbs1 stock solution (20 μg) with 20 μl of the respective substance solutions in 48-well microtiter plates at room temperature (RT) for 2 min. As reference served 20 μl 10% (v/v) DMSO solution in H2O mixed with 20 μl of the solvents of the respective substances. Afterwards, 100 μl of S. gordonii or E. coli (resuspended in TBS-TC or TBS-T, respectively, for the calcium-free assays) solution was added simultaneously to each well using a multichannel pipette. Bacterial aggregation was compared to the reference by visual inspection over a time course of 10 min. The scoring system was: (+++) no difference in aggregation compared to reference. (++) moderate inhibition of aggregation over the entire time course or maximal aggregation delayed by 1-5-min compared to reference; (+) strong inhibition of aggregation over the entire time course or maximal aggregation delayed by 5-10 min compared to reference; (−) complete inhibition of aggregation after 10 min. Each experiment was at least done in triplicate.
Sucrose, maltose, dextrose, and the various salts tested were standard reagents obtained from Merck or Sigma. […] The following substances were obtained from Sigma with catalogue numbers in brackets: heparansulfate (H-7640), chondroitinsulfate B (C-3788), azoxymethane (A-9517), N-nitrosodiethlylamine (N-0258), streptococcus sanguis LTA (L-3765), Staphylococcus aureus LTA (L-2515), Escherichia coli LPS (L-3012), Klebsiella pneumoniae LPS (L-1770), Salmonella typhimurium LPS (L-6511), Salmonella minnesota LPS (chemotype Rd1; L-9391), L-α-phosphatidylcholine (P-279), CUROSURF™ with 80 mg/ml phospholipids from pig surfactant (54 mg/ml phosphatidylcholine and 30-5 mg/ml D-palmitoylphosphatidylcholine; overall: 99% polar phospholipids and 1% proteins) was obtained from Dey (Napa; Italy), and sIgA was purchased from Sigma. The dNTPs and the dNTP-Mix were from Roche Diagnostics. The DNA used in all experiments was the 4.7-kb plasmid pEGFP-N1 from Clontech.

[1] = biological target: T2, rDMBT1 binding to HIV-gp120 (Homo sapiens, UniProt Q9UGM3, G1295S/L1336F/T649M); assay: Effects of DSS and dextran on rDMBT1 binding to HIV-gp120; settings: 100 μg/ml DSS or dextran; rDMBT1 2 μg/ml; gp120 1 μg/ml
T2 construct: made in house; host or cells: rDMBT1 from T-REx-CHO
T2 sequence (Q9UGM3 20-2413 T649M/G1295S/L1336F): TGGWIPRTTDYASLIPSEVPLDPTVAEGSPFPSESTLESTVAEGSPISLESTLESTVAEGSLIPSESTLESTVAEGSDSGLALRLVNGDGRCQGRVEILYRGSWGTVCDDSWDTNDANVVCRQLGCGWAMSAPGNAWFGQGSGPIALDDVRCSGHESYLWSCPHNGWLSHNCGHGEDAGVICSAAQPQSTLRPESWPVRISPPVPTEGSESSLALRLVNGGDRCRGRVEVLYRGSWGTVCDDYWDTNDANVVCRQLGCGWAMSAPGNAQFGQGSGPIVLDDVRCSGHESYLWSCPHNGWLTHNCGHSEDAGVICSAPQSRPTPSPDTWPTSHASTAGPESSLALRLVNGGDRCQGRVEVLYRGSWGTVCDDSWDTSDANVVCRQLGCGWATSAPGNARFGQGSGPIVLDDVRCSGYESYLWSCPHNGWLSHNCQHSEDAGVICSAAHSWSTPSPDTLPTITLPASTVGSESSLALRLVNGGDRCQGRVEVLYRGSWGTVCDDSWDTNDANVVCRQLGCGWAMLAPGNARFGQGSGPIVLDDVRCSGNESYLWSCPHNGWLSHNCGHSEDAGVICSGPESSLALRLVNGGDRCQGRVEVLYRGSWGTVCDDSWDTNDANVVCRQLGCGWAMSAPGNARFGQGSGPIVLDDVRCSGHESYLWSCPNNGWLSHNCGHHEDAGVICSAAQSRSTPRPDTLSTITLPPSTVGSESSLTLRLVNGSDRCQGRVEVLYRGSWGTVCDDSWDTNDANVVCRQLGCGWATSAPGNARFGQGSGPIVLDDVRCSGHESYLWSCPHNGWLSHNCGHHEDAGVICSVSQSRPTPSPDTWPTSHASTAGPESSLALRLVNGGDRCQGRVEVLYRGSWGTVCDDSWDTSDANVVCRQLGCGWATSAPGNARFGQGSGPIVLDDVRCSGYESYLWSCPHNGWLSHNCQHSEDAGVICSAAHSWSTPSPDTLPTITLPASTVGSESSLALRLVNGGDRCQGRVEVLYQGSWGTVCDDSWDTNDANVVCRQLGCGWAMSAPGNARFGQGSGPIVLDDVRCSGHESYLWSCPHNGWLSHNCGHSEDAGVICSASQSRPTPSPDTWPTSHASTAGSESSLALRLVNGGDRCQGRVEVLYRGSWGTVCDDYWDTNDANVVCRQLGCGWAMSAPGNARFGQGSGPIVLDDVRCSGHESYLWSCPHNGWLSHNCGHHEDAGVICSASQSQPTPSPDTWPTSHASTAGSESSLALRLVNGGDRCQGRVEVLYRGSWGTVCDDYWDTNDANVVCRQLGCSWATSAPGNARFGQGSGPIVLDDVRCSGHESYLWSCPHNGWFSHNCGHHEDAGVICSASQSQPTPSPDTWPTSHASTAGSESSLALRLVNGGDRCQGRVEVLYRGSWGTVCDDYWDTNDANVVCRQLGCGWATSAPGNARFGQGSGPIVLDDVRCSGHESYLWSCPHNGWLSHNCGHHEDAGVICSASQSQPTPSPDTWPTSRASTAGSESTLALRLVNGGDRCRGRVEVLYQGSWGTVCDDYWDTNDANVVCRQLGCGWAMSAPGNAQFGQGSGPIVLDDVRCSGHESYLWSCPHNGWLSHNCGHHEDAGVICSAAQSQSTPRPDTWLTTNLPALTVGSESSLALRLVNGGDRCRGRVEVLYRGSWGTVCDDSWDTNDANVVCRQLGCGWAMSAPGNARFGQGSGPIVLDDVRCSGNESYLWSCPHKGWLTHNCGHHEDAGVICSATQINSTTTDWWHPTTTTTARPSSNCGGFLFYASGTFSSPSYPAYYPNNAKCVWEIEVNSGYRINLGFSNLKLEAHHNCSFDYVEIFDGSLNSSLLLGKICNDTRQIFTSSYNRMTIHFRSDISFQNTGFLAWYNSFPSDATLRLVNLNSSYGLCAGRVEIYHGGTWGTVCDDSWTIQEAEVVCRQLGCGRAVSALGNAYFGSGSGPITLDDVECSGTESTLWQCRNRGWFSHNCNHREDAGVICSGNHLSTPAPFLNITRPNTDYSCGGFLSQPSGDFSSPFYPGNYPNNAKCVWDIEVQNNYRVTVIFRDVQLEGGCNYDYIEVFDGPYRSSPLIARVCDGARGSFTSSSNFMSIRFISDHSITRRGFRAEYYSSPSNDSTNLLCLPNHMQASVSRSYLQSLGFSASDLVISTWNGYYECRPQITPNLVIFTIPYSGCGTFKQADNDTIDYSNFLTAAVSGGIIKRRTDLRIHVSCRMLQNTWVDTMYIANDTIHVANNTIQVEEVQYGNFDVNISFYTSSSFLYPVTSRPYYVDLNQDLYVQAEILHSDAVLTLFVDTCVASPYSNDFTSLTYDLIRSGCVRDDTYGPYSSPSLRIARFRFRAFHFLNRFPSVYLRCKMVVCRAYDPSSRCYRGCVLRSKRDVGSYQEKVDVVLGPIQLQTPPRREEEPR
Description: Values are means of five independent experiments.

Salmonella typhimurium = Salmonella typhimurium binding to immobilized DMBT1 or peptide; settings: Rd1 and Re chemotype versus wild type
Protocol: Salivary DMBT1 (salivary agglutinin; DMBT1^SAG; hereafter referred to as DMBT1) was obtained from parotid saliva of healthy volunteer donors collected with Lashley cups. For confirmatory experiments of DMBT1 interaction partners, initial studies with Salmonella strains, and HIV studies we used DMBT1 purified to about 95% homogeneity by the procedure described before. The concentration was determined by the BCA Protein Assay Kit (Pierce) according to the instructions of the manufacturer. […] For partial purification, 50 ml parotid saliva was incubated for 0.5 to 1 h in ice water, in order to promote the formation of a precipitate. After centrifugation for 20 min (4° C.; 5,000 g), the pellet was resuspended in 1.0 to 2.5 ml PBS. In order to determine the DMBT1 concentrations within the samples, serial dilutions of the preparations were compared to serial dilutions of purified recombinant DMBT1 (rDMBT1) by ELISA and the adjusted concentrations were confirmed by Western blotting (see below).
Streptococcus mutans (Ingbritt), Streptococcus gordonii (HG 222 and DSM20568), Escherichia coli (F7 and OM36-1), and Helicobacter pylori (ATCC 43504) were gown and processed as described earlier. […]

## Chondroitin sulfate B
DMBT1pbs1; substance 1-5 mg/ml, pH co
  Aggregation of E. coli: −
  Aggregation of S. gordonii: −

## OC[C@H]1O[C@@](CO)(O[C@H]2O[C@H](CO)[C@@H](O)[C@H](O)[C@H]2O)[C@@H](O)[C@@H]1O [Sucrose]
DMBT1pbs1; substance 1-500 mM, pH co
  Aggregation of E. coli: +++
  Aggregation of S. gordonii: +++

## dextran
[1]
  inhibition of rDMBT1 binding to immobilized HIV-gp120: but not dextran, which lacks the sulfate groups, exerted an inhibitory effect

## NC(=O)CC[C@H](N)C(=O)O [Glutamine]
DMBT1pbs1; substance 1-250 mM, pH co
  Aggregation of E. coli: +++
  Aggregation of S. gordonii: +++

## DMBT1: purified DMBT1 from saliva (salivary agglutinin)
Salmonella typhimurium
  binding of Salmonella typhimurium chemotypes: Enhanced binding of the Rd1 and Re chemotype

## O=P([O-])([O-])O.[K+].[K+] [K2HPO4]
DMBT1pbs1; substance 1 mM, pH co
  Aggregation of E. coli: ++
  Aggregation of S. gordonii: ++

## O=P([O-])(O)O.[K+] [KH2 PO4]
DMBT1pbs1; substance 1-10 mM, pH co
  Aggregation of E. coli: +
  Aggregation of S. gordonii: +

## Aprolinin
DMBT1pbs1; substance 1-5 mg/ml, pH co
  Aggregation of E. coli: +++
  Aggregation of S. gordonii: +++

## CN=[N+](C)[O-] [Azoxymethane (AOM), Azoxymethane]
DMBT1pbs1; substance 1-500 mM, pH co
  Aggregation of E. coli: +++
  Aggregation of S. gordonii: +++

## Nc1ncnc2c1ncn2[C@H]1C[C@H](O)[C@@H](COP(=O)(O)OP(=O)(O)OP(=O)(O)O)O1 [dATP]
DMBT1pbs1; substance 1-8 mM, pH co
  Aggregation of E. coli: ++
  Aggregation of S. gordonii: ++

## Cc1cn([C@H]2C[C@H](O)[C@@H](COP(=O)(O)OP(=O)(O)OP(=O)(O)O)O2)c(=O)[nH]c1=O [dTTP]
DMBT1pbs1; substance 1-8 mM, pH co
  Aggregation of E. coli: ++
  Aggregation of S. gordonii: ++

## OC[C@H]1O[C@H](O[C@H]2[C@H](O)[C@@H](O)C(O)O[C@@H]2CO)[C@H](O)[C@@H](O)[C@@H]1O (mixture of isomers) [Maltose]
DMBT1pbs1; substance 1-500 mM, pH co
  Aggregation of E. coli: +++
  Aggregation of S. gordonii: +++

## [Cl-].[Na+] [NaCL]
DMBT1pbs1
  Aggregation of E. coli: +++ and +
  Aggregation of S. gordonii: +++ and +

## CCN(CC)N=O [N-nitrosodiethylamine (DEN), N-nitrosodiethylamine]
DMBT1pbs1; substance 1-50 mM, pH co
  Aggregation of E. coli: +++
  Aggregation of S. gordonii: +++
DMBT1pbs1; substance 100-500 mM, pH co
  Aggregation of E. coli: ++
  Aggregation of S. gordonii: ++

## Nc1nc2c(ncn2[C@H]2C[C@H](O)[C@@H](COP(=O)(O)OP(=O)(O)OP(=O)(O)O)O2)c(=O)[nH]1 [dGTP]
DMBT1pbs1; substance 1-8 mM, pH co
  Aggregation of E. coli: ++
  Aggregation of S. gordonii: ++

## NH2-QGRVEVLYRGSWGTVC-COOH (H-QGRVEVLYRGSWGTVC-OH) [DMBT1-SRCRP2]
Salmonella typhimurium
  binding of Salmonella typhimurium chemotypes: Enhanced binding of the Rd1 and Re chemotype

## Heparan sulfate
DMBT1pbs1; substance 1-5 mg/ml, pH co
  Aggregation of E. coli: −
  Aggregation of S. gordonii: −

## [Ba+2].[OH-].[OH-] [BaOH]
DMBT1pbs1; substance 5-50 mM, pH co
  Aggregation of E. coli: +++
  Aggregation of S. gordonii: +++

## O=[N+]([O-])[O-].[K+] [KNO3]
DMBT1pbs1; substance 500 mM, pH co
  Aggregation of E. coli: +
  Aggregation of S. gordonii: +
DMBT1pbs1; substance 1-100 mM, pH co
  Aggregation of E. coli: +++
  Aggregation of S. gordonii: +++

## Nc1ccn([C@H]2C[C@H](O)[C@@H](COP(=O)(O)OP(=O)(O)OP(=O)(O)O)O2)c(=O)n1 [dCTP]
DMBT1pbs1; substance 1-8 mM, pH co
  Aggregation of E. coli: ++
  Aggregation of S. gordonii: ++

## [Na+].[OH-] [NaOH]
DMBT1pbs1; substance 5-50 mM, pH co
  Aggregation of E. coli: +++
  Aggregation of S. gordonii: +++

## O=S(=O)([O-])[O-].[Na+].[Na+] [Na2SO4]
DMBT1pbs1; substance 1 mM, pH co
  Aggregation of E. coli: +
  Aggregation of S. gordonii: +
DMBT1pbs1; substance 50-500 mM, pH co
  Aggregation of E. coli: −
  Aggregation of S. gordonii: −

## O=P([O-])([O-])[O-].[Na+].[Na+].[Na+] [Na3PO4]
DMBT1pbs1; substance 1 mM, pH co
  Aggregation of E. coli: ++
  Aggregation of S. gordonii: ++
